# Results: patent US20240398811A1, “PRC2 INHIBITORS FOR USE IN TREATING BLOOD DISORDERS” (ORIC Pharmaceuticals, Inc., priority 2021, published 2024)
# Target: purified human, His-tagged PRC2 complex (Homo sapiens (Human), UniProt O75530)
# Test: Hot Spot HMT assay, inhibition of PRC2 enzymatic activity
# Type: biochemical
# Conditions: 10 nM PRC2 complex, 1 μM 3H-SAM, core histone H3, 10-point dose-response
# Procedure, shortened: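 Five-subunit PRC2 complex (EZH2, EED, SUZ12, AEBP2, RbAp48; 10 nM) preincubated 20 min at 30° C with compound (top 1.0 μM) and 0.05 mg/ml core histone H3 in Tris-HCl, 1% DMSO. Started with 1 μM [3H]SAM, 1 hr at 30° C; tritiated H3 measured by filter binding and scintillation.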
# Chain of purified human, His-tagged PRC2 complex (O75530 whole entry): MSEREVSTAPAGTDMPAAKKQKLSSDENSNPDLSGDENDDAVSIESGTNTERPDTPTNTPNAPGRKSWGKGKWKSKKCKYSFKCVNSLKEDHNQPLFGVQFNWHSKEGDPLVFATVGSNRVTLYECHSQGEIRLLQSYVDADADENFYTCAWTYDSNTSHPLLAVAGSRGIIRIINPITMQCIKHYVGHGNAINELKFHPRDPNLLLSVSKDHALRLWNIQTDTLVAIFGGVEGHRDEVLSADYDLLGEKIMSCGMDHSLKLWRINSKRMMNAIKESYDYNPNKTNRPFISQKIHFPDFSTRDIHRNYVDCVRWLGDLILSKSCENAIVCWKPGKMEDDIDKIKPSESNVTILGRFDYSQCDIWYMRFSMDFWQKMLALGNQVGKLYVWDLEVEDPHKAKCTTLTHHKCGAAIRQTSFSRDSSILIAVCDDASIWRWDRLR
# Chain of purified human, His-tagged PRC2 complex (Q15910 whole entry partner): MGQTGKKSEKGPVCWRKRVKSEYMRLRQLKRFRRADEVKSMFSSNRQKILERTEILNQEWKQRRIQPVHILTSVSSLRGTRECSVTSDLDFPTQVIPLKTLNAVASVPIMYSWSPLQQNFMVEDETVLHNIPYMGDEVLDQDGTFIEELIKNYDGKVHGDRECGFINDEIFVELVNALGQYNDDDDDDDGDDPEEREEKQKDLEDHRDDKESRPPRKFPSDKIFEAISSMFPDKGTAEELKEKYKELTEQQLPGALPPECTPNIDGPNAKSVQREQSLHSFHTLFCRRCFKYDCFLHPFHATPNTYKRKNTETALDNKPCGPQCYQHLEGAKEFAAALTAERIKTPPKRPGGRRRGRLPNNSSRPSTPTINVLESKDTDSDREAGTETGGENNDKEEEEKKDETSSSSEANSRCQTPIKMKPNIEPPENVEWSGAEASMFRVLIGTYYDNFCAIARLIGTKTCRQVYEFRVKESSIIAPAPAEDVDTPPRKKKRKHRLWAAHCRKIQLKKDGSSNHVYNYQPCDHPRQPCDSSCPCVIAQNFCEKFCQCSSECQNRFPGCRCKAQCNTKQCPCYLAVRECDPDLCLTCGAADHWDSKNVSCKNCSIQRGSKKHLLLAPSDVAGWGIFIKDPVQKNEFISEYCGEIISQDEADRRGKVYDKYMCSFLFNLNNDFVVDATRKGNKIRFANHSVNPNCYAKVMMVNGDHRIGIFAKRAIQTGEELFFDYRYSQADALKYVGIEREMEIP
# Chain of purified human, His-tagged PRC2 complex (Q15022 whole entry partner): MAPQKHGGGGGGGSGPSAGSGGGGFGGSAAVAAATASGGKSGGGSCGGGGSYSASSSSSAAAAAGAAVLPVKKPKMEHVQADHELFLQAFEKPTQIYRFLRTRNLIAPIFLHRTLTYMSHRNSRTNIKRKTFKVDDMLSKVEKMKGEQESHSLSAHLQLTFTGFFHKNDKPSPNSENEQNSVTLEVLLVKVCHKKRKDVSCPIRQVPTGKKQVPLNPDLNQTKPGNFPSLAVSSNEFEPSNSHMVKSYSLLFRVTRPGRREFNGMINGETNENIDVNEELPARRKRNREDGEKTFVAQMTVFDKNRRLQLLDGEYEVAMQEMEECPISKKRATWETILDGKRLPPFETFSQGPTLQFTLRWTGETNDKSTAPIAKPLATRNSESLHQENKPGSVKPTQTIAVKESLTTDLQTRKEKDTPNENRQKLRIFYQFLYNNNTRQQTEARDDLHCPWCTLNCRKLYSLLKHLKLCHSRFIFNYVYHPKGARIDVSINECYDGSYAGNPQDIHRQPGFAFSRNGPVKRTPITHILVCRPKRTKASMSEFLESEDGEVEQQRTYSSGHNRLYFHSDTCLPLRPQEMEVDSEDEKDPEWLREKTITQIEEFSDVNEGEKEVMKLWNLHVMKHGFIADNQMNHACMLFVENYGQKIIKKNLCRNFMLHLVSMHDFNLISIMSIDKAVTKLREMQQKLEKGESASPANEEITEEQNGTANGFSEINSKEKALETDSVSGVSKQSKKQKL
# Chain of purified human, His-tagged PRC2 complex (Q6ZN18 whole entry partner): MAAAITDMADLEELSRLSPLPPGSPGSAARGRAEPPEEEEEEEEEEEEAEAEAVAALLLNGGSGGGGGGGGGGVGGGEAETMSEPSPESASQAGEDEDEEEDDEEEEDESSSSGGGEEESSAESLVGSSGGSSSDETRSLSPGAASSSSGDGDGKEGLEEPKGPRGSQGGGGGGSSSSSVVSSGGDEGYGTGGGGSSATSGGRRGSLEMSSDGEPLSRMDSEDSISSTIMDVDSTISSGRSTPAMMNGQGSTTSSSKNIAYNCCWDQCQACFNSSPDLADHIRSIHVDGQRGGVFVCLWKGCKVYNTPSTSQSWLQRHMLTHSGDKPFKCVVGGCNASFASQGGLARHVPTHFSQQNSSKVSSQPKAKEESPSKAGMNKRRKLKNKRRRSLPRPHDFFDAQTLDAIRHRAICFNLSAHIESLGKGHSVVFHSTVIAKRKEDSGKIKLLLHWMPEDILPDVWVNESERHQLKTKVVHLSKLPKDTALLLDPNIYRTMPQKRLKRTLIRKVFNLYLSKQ
# Chain of purified human, His-tagged PRC2 complex (Q09028 whole entry partner): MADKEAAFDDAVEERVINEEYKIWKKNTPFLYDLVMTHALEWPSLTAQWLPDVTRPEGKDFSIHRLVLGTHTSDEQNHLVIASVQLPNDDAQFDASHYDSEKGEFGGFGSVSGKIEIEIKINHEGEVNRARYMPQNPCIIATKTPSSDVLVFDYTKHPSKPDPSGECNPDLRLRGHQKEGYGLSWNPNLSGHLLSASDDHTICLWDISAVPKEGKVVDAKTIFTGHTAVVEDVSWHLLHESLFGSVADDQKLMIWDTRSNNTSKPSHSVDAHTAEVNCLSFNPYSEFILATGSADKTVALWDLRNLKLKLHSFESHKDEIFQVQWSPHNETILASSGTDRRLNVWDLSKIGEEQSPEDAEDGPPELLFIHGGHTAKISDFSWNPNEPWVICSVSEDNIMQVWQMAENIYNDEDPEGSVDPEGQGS
row,Compound,IC50
1,"Cc1nn(C[C@@H](C)O)c(C)c1-c1cnc(NCc2c(F)ccc3c2CCO3)n2cc(C#N)nc12 [Example 66, (R)-5-(((5-fluoro-2,3-dihydrobenzofuran-4-yl)methyl)amino)-8-(1-(2-hydroxypropyl)-3,5-dimethyl-1H-pyrazol-4-yl)imidazo[1,2-c]pyrimidine-2-carbonitrile]",100 to 500 nM
2,"Cc1ncc(-c2cnc(NCc3c(F)ccc4c3CCO4)n3cc(C#N)nc23)c(C)n1 [Example 71, 8-(2,4-dimethylpyrimidin-5-yl)-5-(((5-fluoro-2,3-dihydrobenzofuran-4-yl)methyl)amino)imidazo[1,2-c]pyrimidine-2-carbonitrile]",< 100 nM
3,"Cc1nn(C)cc1-c1cnc(NCc2c(F)ccc3c2CCO3)n2cc(C#N)nc12 [Example 72, 8-(1,3-dimethyl-1H-pyrazol-4-yl)-5-(((5-fluoro-2,3-dihydrobenzofuran-4-yl)methyl)amino)imidazo[1,2-c]pyrimidine-2-carbonitrile]",< 100 nM
4,"N#Cc1cn2c(NCc3c(F)ccc4c3CCO4)ncc(-c3ccc(CN4CCCC4)cc3)c2n1 [Example 74, 5-(((5-fluoro-2,3-dihydrobenzofuran-4-yl)methyl)amino)-8-(4-(pyrrolidin-1-ylmethyl)phenyl)imidazo[1,2-c]pyrimidine-2-carbonitrile]",< 100 nM
5,"N#Cc1cn2c(NCc3c(F)ccc4c3CCO4)ncc(-c3ccc(CN4CCOCC4)cc3)c2n1 [Example 75, 5-(((5-fluoro-2,3-dihydrobenzofuran-4-yl)methyl)amino)-8-(4-(morpholinomethyl)phenyl)imidazo[1,2-c]pyrimidine-2-carbonitrile]",< 100 nM
6,"Cc1cc(C(=O)N(C)C)ncc1-c1cnc(NCc2c(F)ccc3c2CCO3)n2cc(C#N)nc12 [Example 76, 5-(2-cyano-5-(((5-fluoro-2,3-dihydrobenzofuran-4-yl)methyl)amino)imidazo[1,2-c]pyrimidin-8-yl)-N,N,4-trimethylpicolinamide]",< 100 nM
7,"N#Cc1cn2c(NCc3c(F)ccc4c3CCO4)ncc(C3CC3)c2n1 [Example 77, 8-cyclopropyl-5-(((5-fluoro-2,3-dihydrobenzofuran-4-yl)methyl)amino)imidazo[1,2-c]pyrimidine-2-carbonitrile]",100 to 500 nM
8,"N#Cc1cn2c(NCc3c(F)ccc4c3CCO4)ncc(-c3cnn4c3CCC4)c2n1 [Example 80, 8-(5,6-dihydro-4H-pyrrolo[1,2-b]pyrazol-3-yl)-5-(((5-fluoro-2,3-dihydrobenzofuran-4-yl)methyl)amino)imidazo[1,2-c]pyrimidine-2-carbonitrile]",< 100 nM
9,"Cc1cc(-c2cnc(NCc3c(F)ccc4sccc34)n3cc(C#N)nc23)n(C)n1 [Example 81, 8-(1,3-dimethyl-1H-pyrazol-5-yl)-5-(((5-fluorobenzo[b]thiophen-4-yl)methyl)amino)imidazo[1,2-c]pyrimidine-2-carbonitrile]",> 500 nM
10,"N#Cc1cn2c(NCc3c(F)ccc4c3CCO4)ncc(-c3ccc(S(=O)(=O)C(F)(F)F)cc3)c2n1 [Example 82, 5-(((5-fluoro-2,3-dihydrobenzofuran-4-yl)methyl)amino)-8-(4-((trifluoromethyl)sulfonyl)phenyl)imidazo[1,2-c]pyrimidine-2-carbonitrile]",100 to 500 nM
11,"CN(C)Cc1ccc(-c2cnc(NCc3c(F)ccc4c3CCO4)n3cc(C#N)nc23)c(Cl)c1F [Example 83, 8-(2-chloro-4-((dimethylamino)methyl)-3-fluorophenyl)-5-(((5-fluoro-2,3-dihydrobenzofuran-4-yl)methyl)amino)imidazo[1,2-c]pyrimidine-2-carbonitrile]",< 100 nM
12,"Cc1cc(CN(C)C)c(F)cc1-c1cnc(NCc2c(F)ccc3c2CCO3)n2cc(C#N)nc12 [Example 84, 8-(4-((dimethylamino)methyl)-5-fluoro-2-methylphenyl)-5-(((5-fluoro-2,3-dihydrobenzofuran-4-yl)methyl)amino)imidazo[1,2-c]pyrimidine-2-carbonitrile]",100 to 500 nM
13,"Cc1c(-c2cnc(NCc3c(F)ccc4c3CCO4)n3cc(C#N)nc23)ccc(CN(C)C)c1F [Example 85, 8-(4-((dimethylamino)methyl)-3-fluoro-2-methylphenyl)-5-(((5-fluoro-2,3-dihydrobenzofuran-4-yl)methyl)amino)imidazo[1,2-c]pyrimidine-2-carbonitrile]",< 100 nM
14,"Cc1cc(-c2cnc(NCc3c(F)ccc4c3CCO4)n3cc(C#N)nc23)n(C)n1 [Example 86, 8-(1,3-dimethyl-1H-pyrazol-5-yl)-5-(((5-fluoro-2,3-dihydrobenzofuran-4-yl)methyl)amino)imidazo[1,2-c]pyrimidine-2-carbonitrile]",< 100 nM
15,"Cc1cc(S(C)(=O)=O)ccc1-c1cnc(NCc2c(F)ccc3c2CCO3)n2cc(C#N)nc12 [Example 87, 5-(((5-fluoro-2,3-dihydrobenzofuran-4-yl)methyl)amino)-8-(2-methyl-4-(methylsulfonyl)phenyl)imidazo[1,2-c]pyrimidine-2-carbonitrile]",< 100 nM
16,"Cc1nc(OC(C)C)ncc1-c1cnc(NCc2c(F)ccc3c2CCO3)n2cc(C#N)nc12 [Example 89, 5-(((5-fluoro-2,3-dihydrobenzofuran-4-yl)methyl)amino)-8-(2-isopropoxy-4-methylpyrimidin-5-yl)imidazo[1,2-c]pyrimidine-2-carbonitrile]",< 100 nM
17,"CC(c1ccc(-c2cnc(NCc3c(F)ccc4c3CCO4)n3cc(C#N)nc23)cc1)N1CCCC1 (stereo not shown) [Example 90, 5-(((5-fluoro-2,3-dihydrobenzofuran-4-yl)methyl)amino)-8-(4-(1-(pyrrolidin-1-yl)ethyl)phenyl)imidazo[1,2-c]pyrimidine-2-carbonitrile]",< 100 nM
18,"Cc1nn(C(C)C)c(C)c1-c1cnc(NCc2c(F)ccc3c2CCO3)n2cc(C#N)nc12 [Example 92, 5-(((5-fluoro-2,3-dihydrobenzofuran-4-yl)methyl)amino)-8-(1-isopropyl-3,5-dimethyl-1H-pyrazol-4-yl)imidazo[1,2-c]pyrimidine-2-carbonitrile]",100 to 500 nM

# Second part, the compound after the results:
row,IC50,Compound
1,< 100 nM,"Cc1ccc(-c2cnc(NCc3c(F)ccc4c3CCO4)n3cc(C#N)nc23)c(C)n1 [Example 67, 8-(2,6-dimethylpyridin-3-yl)-5-(((5-fluoro-2,3-dihydrobenzofuran-4-yl)methyl)amino)imidazo[1,2-c]pyrimidine-2-carbonitrile]"
2,< 100 nM,"N#Cc1cn2c(NCc3c(F)ccc4c3CCO4)ncc(-c3cnccn3)c2n1 [Example 68, 5-(((5-fluoro-2,3-dihydrobenzofuran-4-yl)methyl)amino)-8-(pyrazin-2-yl)imidazo[1,2-c]pyrimidine-2-carbonitrile]"
3,< 100 nM,"Cc1ncc(-c2cnc(NCc3c(F)ccc4c3CCO4)n3cc(C#N)nc23)cn1 [Example 69, 5-(((5-fluoro-2,3-dihydrobenzofuran-4-yl)methyl)amino)-8-(2-methylpyrimidin-5-yl)imidazo[1,2-c]pyrimidine-2-carbonitrile]"
4,< 100 nM,"CS(=O)(=O)c1ccc(-c2cnc(NCc3c(F)ccc4c3CCO4)n3cc(C#N)nc23)cc1 [Example 73, 5-(((5-fluoro-2,3-dihydrobenzofuran-4-yl)methyl)amino)-8-(4-(methylsulfonyl)phenyl)imidazo[1,2-c]pyrimidine-2-carbonitrile]"
5,< 100 nM,"Cc1n[nH]cc1-c1cnc(NCc2c(F)ccc3c2CCO3)n2cc(C#N)nc12 [Example 79, 5-(((5-fluoro-2,3-dihydrobenzofuran-4-yl)methyl)amino)-8-(3-methyl-1H-pyrazol-4-yl)imidazo[1,2-c]pyrimidine-2-carbonitrile]"
6,< 100 nM,"COc1ncc(-c2cnc(NCc3c(F)ccc4c3CCO4)n3cc(C#N)nc23)c(C)n1 [Example 88, 5-(((5-fluoro-2,3-dihydrobenzofuran-4-yl)methyl)amino)-8-(2-methoxy-4-methylpyrimidin-5-yl)imidazo[1,2-c]pyrimidine-2-carbonitrile]"
7,100 to 500 nM,"COc1cc(Cl)c(-c2cnc(NCc3c(F)ccc4c3CCO4)n3cc(C#N)nc23)cn1 [Example 91, 8-(4-chloro-6-methoxypyridin-3-yl)-5-(((5-fluoro-2,3-dihydrobenzofuran-4-yl)methyl)amino)imidazo[1,2-c]pyrimidine-2-carbonitrile]"
8,100 to 500 nM,"COc1cncc(-c2cnc(NCc3c(F)ccc4c3CCO4)n3cc(C#N)nc23)c1 [Example 93, 5-(((5-fluoro-2,3-dihydrobenzofuran-4-yl)methyl)amino)-8-(5-methoxypyridin-3-yl)imidazo[1,2-c]pyrimidine-2-carbonitrile]"
9,< 100 nM,"COc1ccc(-c2cnc(NCc3c(F)ccc4c3CCO4)n3cc(C#N)nc23)cn1 [Example 94, 5-(((5-fluoro-2,3-dihydrobenzofuran-4-yl)methyl)amino)-8-(6-methoxypyridin-3-yl)imidazo[1,2-c]pyrimidine-2-carbonitrile]"
10,< 100 nM,"N#Cc1cncc(-c2cnc(NCc3c(F)ccc4c3CCO4)n3cc(C#N)nc23)c1 [Example 95, 8-(5-cyanopyridin-3-yl)-5-(((5-fluoro-2,3-dihydrobenzofuran-4-yl)methyl)amino)imidazo[1,2-c]pyrimidine-2-carbonitrile]"
11,< 100 nM,"Cc1cncc(-c2cnc(NCc3c(F)ccc4c3CCO4)n3cc(C#N)nc23)c1 [Example 96, 5-(((5-fluoro-2,3-dihydrobenzofuran-4-yl)methyl)amino)-8-(5-methylpyridin-3-yl)imidazo[1,2-c]pyrimidine-2-carbonitrile]"
12,< 100 nM,"N#Cc1cn2c(NCc3c(F)ccc4c3CCO4)ncc(-c3cncc(F)c3)c2n1 [Example 97, 5-(((5-fluoro-2,3-dihydrobenzofuran-4-yl)methyl)amino)-8-(5-fluoropyridin-3-yl)imidazo[1,2-c]pyrimidine-2-carbonitrile]"
13,< 100 nM,"Cc1ccncc1-c1cnc(NCc2c(F)ccc3c2CCO3)n2cc(C#N)nc12 [Example 98, 5-(((5-fluoro-2,3-dihydrobenzofuran-4-yl)methyl)amino)-8-(4-methylpyridin-3-yl)imidazo[1,2-c]pyrimidine-2-carbonitrile]"
